US11298422B2, “Treating tumors with TTFields and an aurora kinase inhibitor” (Novocure Limited, priority 2018, dated 2022)

Assays:
[1] = test system: glioblastoma cell line HT 12347; assay: PI (propium iodide) staining of DNA content, primary glioblastoma cells; assay type: cell-based; conditions: HT 12347, TTFields combined with MLN8237 (FIGS. 9A-9E)
From the text: FIGS. 9A-9E show exemplary PI (propium iodide) staining results showing DNA content after treatment with TTFields alone, […] alone, and in combination in glioblastoma cell line HT 12347 with corresponding cell cycle histograms. FIG. 9A is a summary, with 2n in light gray, 4n in dark gray, and r>4n in black; FIG. 9B is a cell cycle histogram for the control; FIG. 9C is a cell cycle histogram for […] treatment alone; FIG. 9D is a cell cycle histogram for MLN8237 alone; and FIG. 9E is a cell cycle histogram for TTFields combined with MLN8237.

[2] = test system: primary glioblastoma cell line HT12347; assay: Light microscopy, primary glioblastoma cells; assay type: cell-based; conditions: HT12347, TTFields and MLN8237 combination vs control and each alone (FIGS. 10A-10D)
Procedure: Cells were treated with control, AZD1152, TTFields, or a combination of both. […] FIGS. 10A-10D show exemplary light microscopy images of primary glioblastoma cells HT12347 after the following treatment: 10A: control; 10B: after […] treatment; 10C: after treatment with MLN8237 alone; 10D: after treatment with TTFields and MLN8237.

[3] = test system: primary glioblastoma cell line HT12347; assay: Normalized cell count, primary glioblastoma cells; assay type: cell-based; conditions: primary glioblastoma cell-lines, compared to each treatment alone; Mann-Whitney-U-test, p<0.01
Procedure: In addition to U87-MG cells, primary tumor-cell lines were established from glioblastoma tissue taken intraoperatively. TTFields (1.6 V/cm RMS, 200 kHz) were applied for 72 hours using the InovitroTM system. AZD1152 was added to the media in concentrations of up to 100 nmol/l. Cell counts, cell cycle and clonogenic potential were determined at the end of treatment. Primary tumor-cell-lines were analyzed. In addition, MLN8237, an Aurora A kinase inhibitor, was tested in concentrations up to 50 nmol/l for the treatment of U87-MG and primary tumor-cell lines to further establish Aurora kinase inhibition as a target for combination therapy with TTFields. […] FIGS. 5A and 5B show the normalized cell counts after treatment with TTFields and AZD1152, alone and in combination, on U87-MG (FIG. 5A) and primary glioblastoma cell line HT12347 (FIG. 5B) at the indicated AZD1152 concentration and […] frequency. The exemplary box plots show the normalized cell count after treatment with AZD1152 alone, TTFields alone, and combination of AZD1152 and TTFields. “***” marks significant differences where p<0.001. […] FIGS. 8A-8B show the normalized cell counts after treatment with TTFields and MLN8237, alone and in combination, on U87-MG (FIG. 8A) and primary glioblastoma cell line HT12347 (FIG. 8B). […]

[4] = test system: U87-MG; assay: Normalized cell count, U87-MG (additional study); assay type: cell-based, human; conditions: compared to each treatment alone, Mann-Whitney-U-test, p<0.01
Procedure: In addition to U87-MG cells, primary tumor-cell lines were established from glioblastoma tissue taken intraoperatively. TTFields (1.6 V/cm RMS, 200 kHz) were applied for 72 hours using the Inovitro™ system. AZD1152 was added to the media in concentrations of up to 100 nmol/l. Cell counts, cell cycle and clonogenic potential were determined at the end of treatment. Primary tumor-cell-lines were analyzed. In addition, MLN8237, an Aurora A kinase inhibitor, was tested in concentrations up to 50 nmol/l for the treatment of U87-MG and primary tumor-cell lines to further establish Aurora kinase inhibition as a target for combination therapy with TTFields. […] FIGS. 8A-8B show the normalized cell counts after treatment with TTFields and MLN8237, alone and in combination, on U87-MG (FIG. 8A) and primary glioblastoma cell line HT12347 (FIG. 8B). The exemplary box plots show the normalized cell count after treatment with TTFields alone, MLN8237 alone, and combination of MLN8237 and TTFields in U87 cells ([…]), and in HT12347 glioblastoma cells (FIG. 8B). The greatest reduction in the percentage of living cells in relation to the control is shown with the combination of TTFields and MLN8237.

COc1cc(Nc2ncc3c(n2)-c2ccc(Cl)cc2C(c2c(F)cccc2OC)=NC3)ccc1C(=O)O [MLN8237, Alisertib]
multinuclear and polyploid cells (PI staining, DNA content) [1]: higher number of multinuclear and polyploid cells
number of cells in light microscopy images [2]: lowest number of cells
cell numbers after combined treatment of MLN8237 and TTFields [3]: significant decrease of cell numbers
cell numbers after combined treatment of MLN8237 and TTFields [4]: significant decrease of cell numbers
